From patent US8455475B2 (Gruenenthal GmbH, priority 2009, dated 2013)

Molecular target: T1, rat B1R (bradykinin receptor 1) (Rattus norvegicus, UniProt P97583)
T1 construct: expressed in transfected cells; host or cells: CHO K1 cells
T1 sequence (P97583 1-337): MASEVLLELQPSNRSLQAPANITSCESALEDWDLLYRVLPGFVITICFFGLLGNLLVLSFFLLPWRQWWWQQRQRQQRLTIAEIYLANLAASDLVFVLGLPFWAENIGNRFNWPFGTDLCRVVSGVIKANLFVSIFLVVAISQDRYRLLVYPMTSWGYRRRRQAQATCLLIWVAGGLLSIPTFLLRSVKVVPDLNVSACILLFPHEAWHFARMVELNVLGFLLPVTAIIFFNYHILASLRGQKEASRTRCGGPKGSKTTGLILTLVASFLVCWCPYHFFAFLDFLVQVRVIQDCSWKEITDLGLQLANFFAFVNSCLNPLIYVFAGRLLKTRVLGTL
Assay: FLIPR Ca2+ assay (Fluo-4) on CHO K1 cells stably transfected with the B1R gene of the rat (rB1R cells): % inhibition at 10 μM / IC50, agonist Des-Arg9-bradykinin
Format: cell-based
Conditions: CHO-K1, rat B1R
Procedure, shortened: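 Peak fluorescence counts read on FLIPR (λex 488, λem 540 nm) after two additions: compound first, then agonist at EC80 after 10–20 min. Human line challenged with Lys-Des-Arg9-bradykinin, rat line with Des-Arg9-bradykinin. Suppression of Ca2+ inflow expressed as % of maximum inhibition.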

| Compound | inhibition at 10 µM [%] |
| --- | --- |
| CN(C(=O)c1ccc(F)cc1C(F)(F)F)C1CCc2ccc(C(=O)N3CCC4(CC3)CCN(c3ccncc3)CC4)cc21 (stereo not drawn) [IND_CC-380, 4-Fluoro-N-methyl-N-[6-(9-pyridin-4-yl-3,9-diazaspiro[5.5]undecane-3-carbonyl)-2,3-dihydro-1H-inden-1-yl]-2-(trifluoromethyl)-benzamide] | 103 |
| O=C(NC1CCc2ccc(C(=O)N3CCC4(CC3)CCN(c3ccncc3)C4)cc21)c1ccc(F)cc1C(F)(F)F (stereo not drawn) [IND_CC-381, 4-Fluoro-N-[6-(2-pyridin-4-yl-2,8-diazaspiro[4.5]decane-8-carbonyl)-2,3-dihydro-1H-inden-1-yl]-2-(trifluoromethyl)-benzamide] | 104 |
| O=C(NC1CCc2ccc(C(=O)N3CCC4(CCN(c5ccncc5)CC4)C3)cc21)c1ccc(F)cc1C(F)(F)F (stereo not drawn) [IND_CC-382, 4-Fluoro-N-[6-(8-pyridin-4-yl-2,8-diazaspiro[4.5]decane-2-carbonyl)-2,3-dihydro-1H-inden-1-yl]-2-(trifluoromethyl)-benzamide] | 103 |
| O=C(NC1CCc2ccc(C(=O)N3CCC4(CC3)CCN(c3ccncc3)CC4)cc21)c1c(F)cccc1F (stereo not drawn) [IND_CC-383, 2,6-Difluoro-N-[6-(9-pyridin-4-yl-3,9-diazaspiro[5.5]undecane-3-carbonyl)-2,3-dihydro-1H-inden-1-yl]-benzamide] | 102 |
| CN(C(=O)c1c(F)cccc1F)C1CCc2ccc(C(=O)N3CCC4(CC3)CCN(c3ccncc3)CC4)cc21 (stereo not drawn) [IND_CC-384, 2,6-Difluoro-N-methyl-N-[6-(9-pyridin-4-yl-3,9-diazaspiro[5.5]undecane-3-carbonyl)-2,3-dihydro-1H-inden-1-yl]-benzamide] | 104 |
| O=C(NC1CCc2ccc(C(=O)N3CCC4(CC3)CCN(c3ccncc3)C4)cc21)c1c(F)cccc1F (stereo not drawn) [IND_CC-385, 2,6-Difluoro-N-[6-(2-pyridin-4-yl-2,8-diazaspiro[4.5]decane-8-carbonyl)-2,3-dihydro-1H-inden-1-yl]-benzamide] | 104 |
| O=C(NC1CCc2ccc(C(=O)N3CCC4(CCN(c5ccncc5)CC4)C3)cc21)c1c(F)cccc1F (stereo not drawn) [IND_CC-386, 2,6-Difluoro-N-[6-(8-pyridin-4-yl-2,8-diazaspiro[4.5]decane-2-carbonyl)-2,3-dihydro-1H-inden-1-yl]-benzamide] | 104 |
| Cc1cccc(C(=O)N(C)C2CCc3ccc(C(=O)N4CCC5(CC4)CCN(c4ccncc4)CC5)cc32)c1C (stereo not drawn) [IND_CC-387, N,2,3-Trimethyl-N-[6-(9-pyridin-4-yl-3,9-diazaspiro[5.5]undecane-3-carbonyl)-2,3-dihydro-1H-inden-1-yl]-benzamide] | 104 |
| Cc1cccc(C(=O)NC2CCc3ccc(C(=O)N4CCC5(CC4)CCN(c4ccncc4)C5)cc32)c1C (stereo not drawn) [IND_CC-388, 2,3-Dimethyl-N-[6-(2-pyridin-4-yl-2,8-diazaspiro[4.5]decane-8-carbonyl)-2,3-dihydro-1H-inden-1-yl]-benzamide] | 101 |
| Cc1cccc(C(=O)NC2CCc3ccc(C(=O)N4CCC5(CCN(c6ccncc6)CC5)C4)cc32)c1C (stereo not drawn) [IND_CC-389, 2,3-Dimethyl-N-[6-(8-pyridin-4-yl-2,8-diazaspiro[4.5]decane-2-carbonyl)-2,3-dihydro-1H-inden-1-yl]-benzamide] | 103 |
| CN(C1CCc2ccc(C(=O)N3CCC4(CC3)CCN(c3ccncc3)CC4)cc21)S(=O)(=O)Cc1cccc(C(F)(F)F)c1 (stereo not drawn) [IND_CC-390, N-Methyl-N-[6-(9-pyridin-4-yl-3,9-diazaspiro[5.5]undecane-3-carbonyl)-2,3-dihydro-1H-inden-1-yl]-1-[3-(trifluoromethyl)phenyl]-methanesulfonic acid amide] | 100 |
| O=C(NC1CCc2ccc(C(=O)N3CCC4(CC3)CCN(c3ccncc3)CC4)cc21)C1CCCC1 (stereo not drawn) [IND_CC-391, N-[6-(9-Pyridin-4-yl-3,9-diazaspiro[5.5]undecane-3-carbonyl)-2,3-dihydro-1H-inden-1-yl]-cyclopentanecarboxylic acid amide] | 103 |
| CN(C(=O)C1CCCC1)C1CCc2ccc(C(=O)N3CCC4(CC3)CCN(c3ccncc3)CC4)cc21 (stereo not drawn) [IND_CC-392, N-Methyl-N-[6-(9-pyridin-4-yl-3,9-diazaspiro[5.5]undecane-3-carbonyl)-2,3-dihydro-1H-inden-1-yl]-cyclopentanecarboxylic acid amide] | 102 |
| O=C(NC1CCc2ccc(C(=O)N3CCC4(CC3)CCN(c3ccncc3)C4)cc21)C1CCCC1 (stereo not drawn) [IND_CC-393, N-[6-(2-Pyridin-4-yl-2,8-diazaspiro[4.5]decane-8-carbonyl)-2,3-dihydro-1H-inden-1-yl]-cyclopentanecarboxylic acid amide] | 103 |

Second part, the compound after the results:

| inhibition at 10 µM [%] | Compound |
| --- | --- |
| 103 | O=C(NC1CCc2ccc(C(=O)N3CCC4(CCN(c5ccncc5)CC4)C3)cc21)C1CCCC1 (stereo not drawn) [IND_CC-394, N-[6-(8-Pyridin-4-yl-2,8-diazaspiro[4.5]decane-2-carbonyl)-2,3-dihydro-1H-inden-1-yl]-cyclopentanecarboxylic acid amide] |
| 58 | CN(C(=O)c1ccc(C(F)(F)F)cn1)C1CCc2ccc(C(=O)N3CCC4(CC3)CCN(c3ccncc3)CC4)cc21 (stereo not drawn) [IND_CC-395, N-Methyl-N-[6-(9-pyridin-4-yl-3,9-diazaspiro[5.5]undecane-3-carbonyl)-2,3-dihydro-1H-inden-1-yl]-5-(trifluoromethyl)-pyridine-2-carboxylic acid amide] |
| 81 | O=C(NC1CCc2ccc(C(=O)N3CCC4(CCN(c5ccncc5)CC4)C3)cc21)c1ccc(C(F)(F)F)cn1 (stereo not drawn) [IND_CC-396, N-[6-(8-Pyridin-4-yl-2,8-diazaspiro[4.5]decane-2-carbonyl)-2,3-dihydro-1H-inden-1-yl]-5-(trifluoromethyl)-pyridine-2-carboxylic acid amide] |
| 68 | O=C(NC1CCc2ccc(C(=O)N3CCC4(CC3)CCN(c3ccncc3)CC4)cc21)c1cnccn1 (stereo not drawn) [IND_CC-397, N-[6-(9-Pyridin-4-yl-3,9-diazaspiro[5.5]undecane-3-carbonyl)-2,3-dihydro-1H-inden-1-yl]-pyrazine-2-carboxylic acid amide] |
| 88 | O=C(NC1CCc2ccc(C(=O)N3CCC4(CCN(c5ccncc5)CC4)C3)cc21)c1cnccn1 (stereo not drawn) [IND_CC-398, N-[6-(8-Pyridin-4-yl-2,8-diazaspiro[4.5]decane-2-carbonyl)-2,3-dihydro-1H-inden-1-yl]-pyrazine-2-carboxylic acid amide] |
| 101 | O=C(NC1CCc2ccc(C(=O)N3CCC4(CC3)CCN(c3ccncc3)CC4)cc21)c1ccccc1F (stereo not drawn) [IND_CC-399, 2-Fluoro-N-[6-(9-pyridin-4-yl-3,9-diazaspiro[5.5]undecane-3-carbonyl)-2,3-dihydro-1H-inden-1-yl]-benzamide] |
| 103 | CN(C(=O)c1ccccc1F)C1CCc2ccc(C(=O)N3CCC4(CC3)CCN(c3ccncc3)CC4)cc21 (stereo not drawn) [IND_CC-400, 2-Fluoro-N-methyl-N-[6-(9-pyridin-4-yl-3,9-diazaspiro[5.5]undecane-3-carbonyl)-2,3-dihydro-1H-inden-1-yl]-benzamide] |
| 103 | O=C(NC1CCc2ccc(C(=O)N3CCC4(CC3)CCN(c3ccncc3)C4)cc21)c1ccccc1F (stereo not drawn) [IND_CC-401, 2-Fluoro-N-[6-(2-pyridin-4-yl-2,8-diazaspiro[4.5]decane-8-carbonyl)-2,3-dihydro-1H-inden-1-yl]-benzamide] |
| 102 | O=C(NC1CCc2ccc(C(=O)N3CCC4(CCN(c5ccncc5)CC4)C3)cc21)c1ccccc1F (stereo not drawn) [IND_CC-402, 2-Fluoro-N-[6-(8-pyridin-4-yl-2,8-diazaspiro[4.5]decane-2-carbonyl)-2,3-dihydro-1H-inden-1-yl]-benzamide] |
| 97 | CN(C1CCc2ccc(C(=O)N3CCC4(CC3)CCN(c3ccncc3)CC4)cc21)S(=O)(=O)c1c(Cl)cc(C(F)(F)F)cc1Cl (stereo not drawn) [IND_CC-403, 2,6-Dichloro-N-methyl-N-[6-(9-pyridin-4-yl-3,9-diazaspiro[5.5]undecane-3-carbonyl)-2,3-dihydro-1H-inden-1-yl]-4-(trifluoromethyl)-benzenesulfonic acid amide] |
| 92 | O=C(c1ccc2c(c1)C(NS(=O)(=O)c1c(Cl)cc(C(F)(F)F)cc1Cl)CC2)N1CCC2(CCN(c3ccncc3)CC2)C1 (stereo not drawn) [IND_CC-404, 2,6-Dichloro-N-[6-(8-pyridin-4-yl-2,8-diazaspiro[4.5]decane-2-carbonyl)-2,3-dihydro-1H-inden-1-yl]-4-(trifluoromethyl)-benzenesulfonic acid amide] |
| 96 | CN(C1CCc2ccc(C(=O)N3CCC4(CC3)CCN(c3ccncc3)CC4)cc21)S(=O)(=O)c1ccc(Br)cc1Cl (stereo not drawn) [IND_CC-405, 4-Bromo-2-chloro-N-methyl-N-[6-(9-pyridin-4-yl-3,9-diazaspiro[5.5]undecane-3-carbonyl)-2,3-dihydro-1H-inden-1-yl]-benzenesulfonic acid amide] |
| 102 | CN(C1CCc2ccc(C(=O)N3CCC4(CC3)CCN(c3ccncc3)CC4)cc21)S(=O)(=O)c1c(Cl)cc(Cl)cc1Cl (stereo not drawn) [IND_CC-406, 2,4,6-Trichloro-N-methyl-N-[6-(9-pyridin-4-yl-3,9-diazaspiro[5.5]undecane-3-carbonyl)-2,3-dihydro-1H-inden-1-yl]-benzenesulfonic acid amide] |
